Test results taken from patent US20250320290A1, “METHODS FOR TRIGGERING SAFETY KILLING […] USING A CD47-SIRPalpha BLOCKADE AGENT” (Sana Biotechnology, Inc., priority 2020, published 2025).
Entries after “also recorded” stand apart in the source; their conditions may differ.

Columns and labels:
[1] = system: human HIP iPSCs (CyD clone 2G11); test: Cytosine deaminase kill switch: s.c. HIP-CyD iPSCs in NSG mice; type: in vivo
Protocol: (§1) Subcutaneous. Healthy male NSG mice were anesthetized via isoflurane inhalation anesthesia in a knockdown chamber. The anesthetized mice were removed from the chamber and placed in a supine position. The injection site (right inguinal area) was sprayed with 70% EtOH. Cells were injected subcutaneously proximal to the inguinal region.
(§2) Mice were anesthetized via isoflurane inhalation anesthesia and injected intraperitoneally (IP) with 250 μl luciferin (45.45 mg/ml). The mice were then positioned in a nose cone in the bioluminescence chamber (anesthesia was maintained at 1.5% with 500 ml oxygen/min). The mice were imaged for 180 seconds. A circle was drawn around the region of interest (ROI) giving a reading of photons/sec of emitted light.
Human HIP iPSCs (CyD clone 2G11) were injected subcutaneously into Group 1 NSG mice. Flucytosine LD (200 mg/kg) treatment was administered daily intraperitoneally. […] Group 1 mice treatment was as follows: 1×10^6 hiPSC HIP CyD clone 2G11 in diluted MG, S.C.; treatment=200 mg/kg/day Flucytosine, IP (DO).

[2] = system: human HIP iPSCs (clone 15; no kill switch); test: s.c. HIP iPSCs without kill switch in NSG mice treated with pro-drug; type: in vivo
Protocol: as §1, §2
Human HIP iPSCs (clone 15; no kill switch) were injected subcutaneously into Group 6 NSG mice. Flucytosine HD (500 mg/kg) treatment was administered daily intraperitoneally. As shown in FIG. 81A-B, human HIP iPSC survival appeared to be impaired by flucytosine HD although cells had no kill switch. The group was expanded for data validation (FIG. 81C-D and FIG. 81E-F). […]
Human HIP iPSCs (clone 15; no kill switch) were injected subcutaneously into Group 6 NSG mice. Ganciclovir HD (75 mg/kg) treatment was administered daily intraperitoneally starting Day 0. […]

[3] = system: human HIP iPSCs (HSVTk clone 1-B10); test: HsVtk kill switch: s.c. HIP-HsVtk iPSCs in NSG mice; type: in vivo
Protocol: as §1, §2
Human HIP iPSCs (HSVTk clone 1-B10) were injected subcutaneously into Group 1 NSG mice. Ganciclovir LD (50 mg/kg) treatment was performed daily intraperitoneally. […] Mice were checked during a 44D follow up. Group 1 mice treatment was as follows: 1×10^6 hiPSCs HIP HSVtk clone 1-B10 luc+ in diluted MG, S.C.; treatment was 50 mg/kg/day Ganciclovir, IP (DO).

[4] = intravenous, cited from earlier work
[5] = system: HIP CD19CAR-T cells (B2M−/−, CIITA−/−, TRAC−/−, CD19-specific CAR-CD47 T cells); test: Innate killing (NK cells, macrophages) by real-time cell analysis, HIP CAR-T cells; type: cell-based, human; settings: pretreated with CD47 blocking antibody, E:T 1:1
Protocol: Briefly, T-cells were plated in CD19^+ tumor cell specific media. After cell index value reached 0.7, human NK cells or human macrophages were added with an E:T ratio of 1:1 with human IL-2 for NK cells and without IL-2 for macrophages. […] Data were standardized and analyzed with the real-time cell analysis instrument software.
After about 48 hours, T-cells were collected and stained with components of a live/dead cell viability staining assay. Briefly, cells were stained with calcein AM and ethidium homodimer-1 according to the manufacturer's protocol. The analysis was performed by flow cytometry and the results were expressed as percentage of dead cells.

mock transfected T cells = test: Innate killing by real-time cell analysis, mock transfected T cells; type: cell-based, human; settings: in the presence of the antibody
human HIP iPSCs [6] = test: In vitro killing of human HIP iPSCs by human NK cells and macrophages with anti-CD47 antibody; type: cell-based; settings: 100 μg/ml antibody
human HIP iPSCs [7] = test: Subcutaneous human HIP iPSCs in NSG mice with adoptive transfer of human NK cells, BLI; type: in vivo
Protocol: as §1
The mice were then positioned in a nose cone in the bioluminescence chamber (anesthesia was maintained at 1.5% with 500 ml oxygen/min). The mice were imaged for 180 seconds. A circle was drawn around the region of interest (ROI) giving a reading of photons/sec of emitted light.
IP dosing. The antibody (100 μl) was injected into the peritoneal cavity from the ventral surface by piercing the skin and muscle layers.
SC dosing. Mice were anesthetized via isoflurane inhalation anesthesia and placed in a supine position. The injection site (right inguinal area) was sprayed with 70% EtOH and the antibody (100 μl) was injected into the area of the implanted cells.

Nc1[nH]c(=O)ncc1F [Flucytosine]
time to killing of HIP-CyD iPSCs ([1]; HD 500 mg/kg daily intraperitoneally from D0): 16 to 32 days
time to killing of HIP-CyD iPSCs after starting treatment ([1]; HD 500 mg/kg daily intraperitoneally from Day 13): 3 to 11 days
time to killing of HIP-CyD iPSCs ([1]; LD 200 mg/kg daily intraperitoneally from D0): 16 to 44 days
time to killing of HIP-CyD iPSCs after starting treatment ([1]; LD 200 mg/kg daily intraperitoneally from Day 13): 3 to 11 days
benefit of HD as compared to LD ([1]; treatment from D0): No major benefit
benefit of HD compared to LD ([1]; treatment from Day 13): No benefit
survival of HIP iPSCs without kill switch ([2]; Flucytosine HD 500 mg/kg daily intraperitoneally): impaired

Nc1nc(O)c2ncn(COC(CO)CO)c2n1 [Ganciclovir]
impact on HIP iPSCs without kill switch ([2]; Ganciclovir HD 75 mg/kg daily intraperitoneally from Day 0): no killing; also recorded: no impact
time to killing of HIP-HsVtk iPSCs ([3]; HD 75 mg/kg daily intraperitoneally from D0): 12 to 16 days
time to killing of HIP-HsVtk iPSCs after start of treatment ([3]; HD 75 mg/kg daily intraperitoneally from Day 13): ≤ 7 days
time to killing of HIP-HsVtk iPSCs ([3]; LD 50 mg/kg daily intraperitoneally from D0): 12 to 24 days
time to killing of HIP-HsVtk iPSCs after start of treatment ([3]; LD 50 mg/kg daily intraperitoneally from Day 13): ≤ 7 days
benefit of HD ([3]; treatment from D0): slightly beneficial
benefit of HD compared to LD ([3]; treatment from Day 13): No obvious benefit

TTI-621: fusion protein of N-terminal V domain of human SIRPα fused to human IgG1 Fc region (SEQ ID NO:133)
maximum tolerated dose (MTD) ([4]; monotherapy, relapsed/refractory hematologic malignancies and selected solid tumors): 0.2 mg/kg
tolerability ([4]; phase 1): well tolerated

B1: magrolimab: anti-CD47 antibody magrolimab (Hu5F9-G4) (Forty Seven, Inc.; Gilead Sciences, Inc.) (antibody, chains of the INN, looked up, V domains shown)
VH: QVQLVQSGAEVKKPGASVKVSCKASGYTFTNYNMHWVRQAPGQRLEWMGTIYPGNDDTSYNQKFKDRVTITADTSASTAYMELSSLRSEDTAVYYCARGGYRAMDYWGQGTLVTVSS
VL: DIVMTQSPLSLPVTPGEPASISCRSSQSIVYSNGNTYLGWYLQKPGQSPQLLIYKVSNRFSGVPDRFSGSGSGTDFTLKISRVEAEDVGVYYCFQGSHVPYTFGQGTKLEIK
killing of HIP CAR-T cells by macrophages and NK cells on CD47 blocking [5]: susceptible to macrophage and NK cell killing
killing of HIP CAR-T cells by macrophages and NK cells on CD47 blocking ([5]; listed as macrolimab): induced killing
killing of mock transfected T cells by NK cell and macrophages (mock transfected T cells): not killed
killing of human HIP iPSCs by human NK cells (human HIP iPSCs [6]): killing
killing of human HIP iPSCs by human macrophages (human HIP iPSCs [6]): killing
killing of HIP iPSCs (human HIP iPSCs [7]; magrolimab D0-D10, 5×10^4 iPSCs, 1×10^6 NK cells): killing of HIP iPSCs
re-appearance of iPSCs (human HIP iPSCs [7]; magrolimab stopped after D10, 6-month follow up): didn't re-appear
